One data set concerns male OF1 mice. Description: analgesia test: abdominal stretches induced by PBQ (phenylbenzoquinone) i.p. Format: in vivo. How it is done:
The in vivo activity of the compounds of the invention was evaluated in an analgesia test. Accordingly, intraperitoneal (i.p.) administration of PBQ (phenylbenzoquinone, 2 mg/kg in a 0.9% sodium chloride solution containing 5% of ethanol) to male OF1 mice weighing 25 to 30 g causes abdominal stretches, on average 30 twists or contractions during the period from 5 to 15 minutes after injection. The test compounds are administered orally in suspension in Tween 80 at 0.5%, 60 minutes or 120 minutes before the administration of PBQ.

Data set [1] addresses T1, FAAH (Fatty Acid Amide Hydrolase) (Mus musculus, UniProt O08914).
T1 construct: Membrane homogenates are prepared at the time of use by homogenizing the tissues in a Polytron; from tissue; host or cells: mouse brain (minus the cerebellum), membrane homogenate
T1 sequence (O08914 1-579): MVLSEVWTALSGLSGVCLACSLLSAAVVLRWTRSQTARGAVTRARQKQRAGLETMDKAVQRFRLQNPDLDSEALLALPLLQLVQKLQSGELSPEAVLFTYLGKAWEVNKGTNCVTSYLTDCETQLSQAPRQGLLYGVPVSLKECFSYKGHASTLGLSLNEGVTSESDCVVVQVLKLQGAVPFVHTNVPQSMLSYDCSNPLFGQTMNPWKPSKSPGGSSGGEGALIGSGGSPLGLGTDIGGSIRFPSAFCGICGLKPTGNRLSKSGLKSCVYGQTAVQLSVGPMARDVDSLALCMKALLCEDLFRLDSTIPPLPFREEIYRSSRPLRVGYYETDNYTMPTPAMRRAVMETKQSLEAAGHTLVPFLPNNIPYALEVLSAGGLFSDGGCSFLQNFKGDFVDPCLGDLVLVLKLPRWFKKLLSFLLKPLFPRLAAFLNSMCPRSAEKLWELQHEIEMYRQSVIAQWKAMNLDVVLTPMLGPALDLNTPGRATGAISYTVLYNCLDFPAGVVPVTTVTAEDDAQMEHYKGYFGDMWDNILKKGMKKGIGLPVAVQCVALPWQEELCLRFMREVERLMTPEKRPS
Description: radioenzymatic assay of anandamide hydrolysis by FAAH (mouse brain membrane homogenates). The class given is biochemical. The settings on record: concentration inhibiting by 50% the control enzyme activity of FAAH; mouse brain membranes, 10 μM anandamide, 15 minutes at 25° C. How it is done:
The compounds of the invention were subjected to pharmacological tests permitting determination of their inhibitory effect on the enzyme FAAH (Fatty Acid Amide Hydrolase).
Accordingly, mouse brains (minus the cerebellum) are removed and stored at −80° C. Membrane homogenates are prepared at the time of use by homogenizing the tissues in a Polytron in a 10 mM Tris HCl buffer (pH 8.0) containing 150 mM NaCl and 1 mM EDTA. The enzyme reaction is subsequently conducted in 70 μl of buffer, containing bovine serum albumin without fatty acids (1 mg/ml). In succession, the test compounds, at various concentrations, anandamide [ethanolamine 1-^3H] (specific activity: 15-20 Ci/mmol) diluted to 10 μM with cold anandamide, and the membrane preparation (400 μg of frozen tissue per assay) are added. After 15 minutes at 25° C., the enzyme reaction is terminated by adding 140 μl of chloroform/methanol. (2:1). The mixture is stirred for 10 minutes then centrifuged for 15 minutes at 3500 g. An aliquot (30 μl) of the aqueous phase, containing the ethanolamine [1-^3H], is counted by liquid scintillation.

Consider 15 molecules from patent publication US7632850B2, “Arylalkylcarbamate derivatives and production thereof” (Sanofi-aventis, priority 2003, dated 2009).

In turn, `CNC(=O)COC(=O)NCc1ccc(-c2ccccc2)cc1` [Compound 1, 2-(methylamino)-2-oxoethyl 1,1′-biphenyl-4-ylmethylcarbamate] showed a melting point of 189 to 190 °C. Molecule `CNC(=O)COC(=O)NCc1ccc(-c2ccc(F)cc2)cc1Cl` [Compound 9, 2-(methylamino)-2-oxoethyl (3-chloro-4′-fluoro-1,1′-biphenyl-4-yl)methylcarbamate] returned a melting point of 170 to 172 °C. For the molecule `CNC(=O)COC(=O)NCc1ccc(-c2ccccn2)cc1` [Compound 81, 2-(methylamino)-2-oxoethyl 4-pyridin-2-ylbenzylcarbamate], the melting point was 151 to 153 °C.

`NC(=O)COC(=O)NCc1ccc(-n2cnc(-c3ccccc3)c2)cc1` [Compound 84, 2-amino-2-oxoethyl [4-(4-phenyl-1H-imidazol-1-yl)phenyl]methylcarbamate] returned a melting point of 200 to 203 °C. Still for that read-out and setting: in the case of `CNC(=O)COC(=O)NCCc1ccc(C(F)(F)F)cc1` [Compound 125, 2-(methylamino)-2-oxoethyl 2-[4-(trifluoromethyl)phenyl]ethylcarbamate] it was 140 to 142 °C. On to `CNC(=O)COC(=O)NCCc1ccc(-c2ccc(F)cc2)cc1F` [Compound 141, 2-(methylamino)-2-oxoethyl 2-(3,4′-difluoro-1,1′biphenyl-4-yl)ethylcarbamate], for which the melting point was 164 to 166 °C. `NC(=O)COC(=O)NCC1(c2ccc(-c3ccc(F)cc3)cc2)CC1` [Compound 145, 2-amino-2-oxoethyl 1-(4′-fluoro-1,1′-biphenyl-4-yl)cyclopropylmethylcarbamate] displayed a melting point of 139 to 141 °C. The molecule `CNC(=O)COC(=O)NCCc1ccc(-c2ccc(Cl)cc2)cc1` [Compound 150, 2-(methylamino)-2-oxoethyl 2-(4′-chloro-1,1′-biphenyl-4-yl)ethylcarbamate] gave a melting point of 186 to 188 °C. Besides, the “Reduction in number of stretches (%)” value in the data set on male OF1 mice ((b) 3 mg/kg p.o. at 1 hour) is −57% (b). In data set [1], the IC50 was determined as 0.063 µM. As to `CNC(=O)COC(=O)NCCc1ccc(-c2cccc(C#N)c2)cc1` [Compound 171, 2-(methylamino)-2-oxoethyl 2-(3′-cyano-1,1′-biphenyl-4-yl)ethylcarbamate], the melting point lay in the range of 157 to 159 °C. The “Reduction in number of stretches (%)” value in the data set with male OF1 mice ((a) 1 mg/kg p.o. at 2 hours) is reported as −51% (a). Also, half-maximal inhibition in data set [1] (IC50) was put at 0.108 µM.

`CNC(=O)COC(=O)NCCc1ccc(-c2ccc(Cl)cc2Cl)cc1` [Compound 178] gave a melting point of 147 to 149 °C. For the same molecule, the “Reduction in number of stretches (%)” value in the data set with male OF1 mice ((b) 3 mg/kg p.o. at 1 hour) is −53% (b). For the same molecule, the midpoint of inhibition in data set [1], the IC50, lay at 0.14 µM. For `CNC(=O)COC(=O)NCCc1ccc(-c2ccc(F)c(Cl)c2)cc1` [Compound 192, 2-(methylamino)-2-oxoethyl 2-(3′-chloro-4′-fluoro-1,1′-biphenyl-4-yl)ethylcarbamate], the melting point is 178 to 180 °C. For the same molecule, in the data set with male OF1 mice ((a) 1 mg/kg p.o. at 2 hours), the “Reduction in number of stretches (%)” value was −43% (a). In data set [1], this molecule gave an IC50 of 0.102 µM. `CNC(=O)COC(=O)NCCc1ccc(Oc2ccccc2)cc1` [Compound 194] displayed a melting point of 111 to 113 °C. Moreover, the “Reduction in number of stretches (%)” value in the data set with male OF1 mice ((b) 3 mg/kg p.o. at 1 hour) is listed as −55% (b). The IC50 in data set [1] worked out at 0.142 µM. Take `CNC(=O)COC(=O)NCCc1ccc(Oc2ccc(Cl)cc2)cc1` [Compound 196, 2-(methylamino)-2-oxoethyl 2-{4-[(4-chlorophenyl)oxy]phenyl}ethylcarbamate]: the melting point was in the range of 133 to 135 °C.

For the molecule `CNC(=O)COC(=O)NCCc1cccc(Oc2ccccc2)c1` [Compound 197, 2-(methylamino)-2-oxoethyl 2-(3-phenyloxyphenyl)ethylcarbamate], the melting point was in the range of 82 to 84 °C.

Consider `NC(=O)COC(=O)NCCc1ccc(-n2ccc3cccnc32)cc1` [Compound 224], for which the melting point was in the range of 110 to 112 °C.
